Structures can show the parent of a compound that is named as a salt.
Tested on: IL-6
Experiment: Measurement of LPS Induced IL-6 Secretion from Whole Blood
Format: cell-based
Settings: 24 h, LPS 200 ng/ml, immunoassay, read-out: pIC50, LPS induced IL-6 secretion from whole blood (converted)
Description: Measurement of LPS Induced IL-6 Secretion from Whole Blood
Activation of monocytic cells by agonists of toll-like receptors such as bacterial lipopolysaccharide (LPS) results in production of key inflammatory mediators including IL-6. Such pathways are widely considered to be central to the pathophysiology of a range of auto-immune and inflammatory disorders.
Compounds to be tested are diluted to give a range of appropriate concentrations of which 1 ul of the diluted stocks is added to a 96 well plate. Following addition of whole blood (130 ul) the plates are incubated at 37 degrees (5% CO2) for 30 min before the addition of 10 ul of 2.8 ug/ml LPS, diluted in complete RPMI 1640 (final concentration=200 ng/ml), to give a total volume of 140 ul per well. After further incubation for 24 hours at 37 degrees, 140 ul of PBS are added to each well. The plates are sealed, shaken for 10 minutes and then centrifuged (2500 rpm×10 min). 100 ul of the supernatant are removed and IL-6 levels assayed by immunoassay (typically by MesoScale Discovery technology) either immediately or following storage at −20 degrees. Concentration response curves for each compound was generated from the data and an IC50 value was calculated.

| Structure (SMILES) | IC50 [µM] |
| --- | --- |
| CC(=O)N1c2ccc(-c3cn(CCN)cn3)cc2[C@H](NC(=O)OC(C)C)C[C@@H]1C [Example 85, 1-Methylethyl {(2S,4R)-1-acetyl-6-[1-(2-aminoethyl)-1H-imidazol-4-yl]-2-methyl-1,2,3,4-tetrahydro-4-quinolinyl}carbamate hydrochloride] | ≤ 31.6 |
| CNCCc1noc(-c2ccc3c(c2)[C@H](NC(=O)OC(C)C)C[C@H](C)N3C(C)=O)n1 [Example 71, 1-Methylethyl((2S,4R)-1-acetyl-2-methyl-6-{3-[2-(methylamino)ethyl]-1,2,4-oxadiazol-5-yl}-1,2,3,4-tetrahydro-4-quinolinyl)carbamate hydrochloride] | ≤ 31.6 |
| CC(=O)N1c2ccc(-c3noc(CCN)n3)cc2[C@H](NC(=O)OC(C)C)C[C@@H]1C [Example 77, 1-Methylethyl {(2S,4R)-1-acetyl-6-[5-(2-aminoethyl)-1,2,4-oxadiazol-3-yl]-2-methyl-1,2,3,4-tetrahydro-4-quinolinyl}carbamate hydrochloride] | ≤ 31.6 |
| CC(=O)N1c2ccc(-c3cn(C)cn3)cc2[C@H](NC(=O)OC(C)C)CC1C (stereo partly drawn) [Example 83, 1-Methylethyl[(2S,4R)-1-acetyl-2-methyl-6-(1-methyl-1H-imidazol-4-yl)-1,2,3,4-tetrahydro-4-quinolinyl]carbamate hydrochloride] | ≤ 31.6 |
| CC(=O)N1c2ccc(-c3noc(CCN(C)C)n3)cc2[C@H](NC(=O)OC(C)C)C[C@@H]1C [Example 78, 1-Methylethyl((2S,4R)-1-acetyl-6-{5-[2-(dimethylamino)ethyl]-1,2,4-oxadiazol-3-yl}-2-methyl-1,2,3,4-tetrahydro-4-quinolinyl)carbamate hydrochloride] | ≤ 31.6 |
| CC(=O)N1c2ccc(-c3cn(CCCN)nn3)cc2[C@H](NC(=O)OC(C)C)C[C@@H]1C [Example 74, 1-Methylethyl {(2S,4R)-1-acetyl-6-[1-(3-aminopropyl)-1H-1,2,3-triazol-4-yl]-2-methyl-1,2,3,4-tetrahydro-4-quinolinyl}carbamate hydrochloride] | ≤ 31.6 |
| CC(=O)N1c2ccc(-n3cnc(C(=O)O)c3)cc2[C@@H](NC(=O)OC(C)C)C[C@H]1C (racemic) [Example 87, 1-[(Cis)-1-acetyl-2-methyl-4-({[(1-methylethyl)oxy]carbonyl}amino)-1,2,3,4-tetrahydro-6-quinolinyl]-1H-imidazole-4-carboxylic acid] | ≤ 31.6 |
| CC(=O)N1c2ccc(-c3nc(CN)no3)cc2[C@H](NC(=O)OC(C)C)C[C@@H]1C [Example 69, 1-Methylethyl {(2S,4R)-1-acetyl-6-[3-(aminomethyl)-1,2,4-oxadiazol-5-yl]-2-methyl-1,2,3,4-tetrahydro-4-quinolinyl}carbamate hydrochloride] | ≤ 31.6 |
| CC(=O)N1c2ccc(-c3c[nH]nn3)cc2[C@H](NC(=O)OC(C)C)C[C@@H]1C [Example 65, 1-Methylethyl[(2S,4R)-1-acetyl-2-methyl-6-(1H-1,2,3-triazol-4-yl)-1,2,3,4-tetrahydro-4-quinolinyl]carbamate] | ≤ 31.6 |
| CC(=O)N1c2ccc(-c3cn(CCN)nn3)cc2[C@H](NC(=O)OC(C)C)C[C@@H]1C [Example 79, 1-Methylethyl {(2S,4R)-1-acetyl-6-[1-(2-aminoethyl)-1H-1,2,3-triazol-4-yl]-2-methyl-1,2,3,4-tetrahydro-4-quinolinyl}carbamate hydrochloride] | ≤ 31.6 |
| CC(=O)N1c2ccc(-c3cn(CCCN(C)C)nn3)cc2[C@H](NC(=O)OC(C)C)C[C@@H]1C [Example 81, 1-Methylethyl((2S,4R)-1-acetyl-6-{1-[3-(dimethylamino)propyl]-1H-1,2,3-triazol-4-yl}-2-methyl-1,2,3,4-tetrahydro-4-quinolinyl)carbamate formate salt] | ≤ 31.6 |
| CC(=O)N1c2ccc(-c3noc(CN)n3)cc2[C@H](NC(=O)OC(C)C)C[C@@H]1C [Example 66, 1-Methylethyl {(2S,4R)-1-acetyl-6-[5-(aminomethyl)-1,2,4-oxadiazol-3-yl]-2-methyl-1,2,3,4-tetrahydro-4-quinolinyl}carbamate hydrochloride] | ≤ 31.6 |
| CC(=O)N1c2ccc(-c3cncn3C)cc2[C@H](NC(=O)OC(C)C)C[C@@H]1C [Example 82, 1-Methylethyl[(2S,4R)-1-acetyl-2-methyl-6-(1-methyl-1H-imidazol-5-yl)-1,2,3,4-tetrahydro-4-quinolinyl]carbamate] | ≤ 31.6 |
| CC(=O)N1c2ccc(-c3nc(CCN)no3)cc2[C@H](NC(=O)OC(C)C)C[C@@H]1C [Example 70, 1-Methylethyl {(2S,4R)-1-acetyl-6-[3-(2-aminoethyl)-1,2,4-oxadiazol-5-yl]-2-methyl-1,2,3,4-tetrahydro-4-quinolinyl}carbamate hydrochloride] | ≤ 31.6 |
| CC(=O)N1c2ccc(-c3cn(CC(=O)O)nn3)cc2[C@H](NC(=O)OC(C)C)C[C@@H]1C [Example 76, {4-[(2S,4R)-1-Acetyl-2-methyl-4-({[(1-methylethyl)oxy]carbonyl}amino)-1,2,3,4-tetrahydro-6-quinolinyl]-1H-1,2,3-triazol-1-yl}acetic acid] | ≤ 31.6 |
| CC(=O)N1c2ccc(-c3ccc(CC(=O)O)cc3)cc2[C@H](NC(=O)OC(C)C)C[C@@H]1C [Example 67, {4-[(2S,4R)-1-Acetyl-2-methyl-4-({[(1-methylethyl)oxy]carbonyl}amino)-1,2,3,4-tetrahydro-6-quinolinyl]phenyl}acetic acid] | ≤ 31.6 |

Continued, values first:

| IC50 [µM] | Structure (SMILES) |
| --- | --- |
| ≤ 31.6 | CC(=O)N1c2ccc(-n3cnc(C)c3)cc2[C@H](NC(=O)OC(C)C)C[C@@H]1C (single isomer, unassigned) [Example 103] |
| ≤ 31.6 | CC(=O)N1c2ccc(-c3ccc(CCC(=O)O)cc3)cc2[C@H](NC(=O)OC(C)C)C[C@@H]1C [Example 102, 3-{4-[(2S,4R)-1-Acetyl-2-methyl-4-({[(1-methylethyl)oxy]carbonyl}amino)-1,2,3,4-tetrahydro-6-quinolinyl]phenyl}propanoic acid] |
| ≤ 31.6 | CC(=O)N1c2ccc(-c3ccc(N)nc3)cc2[C@H](NC(=O)OC(C)C)C[C@@H]1C [Example 110, 1-methylethyl[(2S,4R)-1-acetyl-6-(6-amino-3-pyridinyl)-2-methyl-1,2,3,4-tetrahydro-4-quinolinyl]carbamate] |
| ≤ 31.6 | CC(=O)N1c2ccc(-n3cnc(C)c3)cc2[C@H](NC(=O)OC(C)(C)C)C[C@@H]1C (relative stereo) [Example 123, 1,1-Dimethylethyl[(cis)-1-acetyl-2-methyl-6-(4-methyl-1H-imidazol-1-yl)-1,2,3,4-tetrahydro-4-quinolinyl]carbamate] |
| ≤ 31.6 | CC(=O)N1c2ccc(-c3ccc(CCN)cc3)cc2[C@H](NC(=O)OC(C)C)C[C@@H]1C [Example 96, 1-Methylethyl {(2S,4R)-1-acetyl-6-[4-(2-aminoethyl)phenyl]-2-methyl-1,2,3,4-tetrahydro-4-quinolinyl}carbamate hydrochloride] |
| ≤ 31.6 | CC(=O)N1c2ccc(-c3cn(CC(=O)O)cn3)cc2[C@@H](NC(=O)OC(C)C)C[C@H]1C (racemic) [Example 90, {4-[(Cis)-1-acetyl-2-methyl-4-({[(1-methylethyl)oxy]carbonyl}amino)-1,2,3,4-tetrahydro-6-quinolinyl]-1H-imidazol-1-yl}acetic acid trifluoroacetate] |
| ≤ 31.6 | CC(=O)N1c2ccc(-c3ccccn3)cc2[C@H](NC(=O)OC(C)C)C[C@@H]1C [Example 101, 1-Methylethyl[(2S,4R)-1-acetyl-2-methyl-6-(2-pyridinyl)-1,2,3,4-tetrahydro-4-quinolinyl]carbamate] |
| ≤ 31.6 | COCn1cc(-c2ccc3c(c2)[C@H](NC(=O)OC(C)C)C[C@H](C)N3C(C)=O)cn1 [Example 106, 1-Methylethyl((2S,4R)-1-acetyl-2-methyl-6-{1-[(methyloxy)methyl]-1H-pyrazol-4-yl}-1,2,3,4-tetrahydro-4-quinolinyl)carbamate] |
| ≤ 31.6 | CC(=O)N1c2ccc(-c3ccccc3)cc2[C@H](NC(=O)OC(C)C)C[C@@H]1C [Example 94, 1-Methylethyl[(2S,4R)-1-acetyl-2-methyl-6-phenyl-1,2,3,4-tetrahydro-4-quinolinyl]carbamate] |
| ≤ 31.6 | CC(=O)N1c2ccc(-n3ccnc3C)cc2[C@H](NC(=O)OC(C)C)C[C@@H]1C [Example 88, 1-Methylethyl[(2S,4R)-1-acetyl-2-methyl-6-(2-methyl-1H-imidazol-1-yl)-1,2,3,4-tetrahydro-4-quinolinyl]carbamate] |
| ≤ 31.6 | CC(=O)N1c2ccc(-c3cn(CCC(=O)O)cn3)cc2[C@@H](NC(=O)OC(C)C)C[C@H]1C (racemic) [Example 99, 3-{(Cis)-4-[1-acetyl-2-methyl-4-({[(1-methylethyl)oxy]carbonyl}amino)-1,2,3,4-tetrahydro-6-quinolinyl]-1H-imidazol-1-yl}propanoic acid trifluoroacetate] |
| ≤ 31.6 | CC(=O)N1c2ccc(-c3cnn(CC(C)(C)O)c3)cc2[C@H](NC(=O)OC(C)C)C[C@@H]1C [Example 109, 1-Methylethyl {(2S,4R)-1-acetyl-6-[1-(2-hydroxy-2-methylpropyl)-1H-pyrazol-4-yl]-2-methyl-1,2,3,4-tetrahydro-4-quinolinyl}carbamate] |
| ≤ 31.6 | CC(=O)N1c2ccc(-n3cnc(CO)c3)cc2[C@@H](NC(=O)OC(C)C)C[C@H]1C (racemic) [Example 89, 1-Methylethyl {(cis)-1-acetyl-6-[4-(hydroxymethyl)-1H-imidazol-1-yl]-2-methyl-1,2,3,4-tetrahydro-4-quinolinyl}carbamate] |

Reference: US8697725B2, “Tetrahydroquinoline derivatives and their pharmaceutical use” (GlaxoSmithKline LLC, priority 2009, dated 2014)
